Experimental data reported in PMC4457826 (PLoS Pathogens, 2015).
No end group written: not given here.

Legend:
USP7-CTD = molecular target: T1, USP7-CTD (Homo sapiens, UniProt Q93009); assay: GST pull-down, USP7-CTD; type: binding
T1 construct: USP7-CTD (535–1102); His tag (inferred from nickel-NTA purification; vector p15TV-L); made in house; host or cells: E. coli BL21(DE3)mgk
Protocol: (§1) Fragments representing USP7-CTD Ubl domains were prepared using ligation independent cloning with In-Fusion (Clontech) in p15TV-L. The boundaries of the Ubl domain constructs are Ubl12 (535–776), Ubl123 (535–889), Ubl345 (776–1102), Ubl45 (886–1102) and USP7-CTD (535–1102). Plasmids expressing USP7-NTD, USP7, and myc-USP7 WT (pCANmycUSP7) were described previously. USP7 mutants E759A, D762A, D764A and D762A/D764A in Ubl123 were synthesized (Genscript) and inserted into the pET15b plasmid. USP7 mutants E759A, D762A, D764A, D762A/D764A and D762R/D764R in USP7-CTD were prepared by ACGT Corporation. The D762R/D764R mutant was then sub-cloned into wild-type pCANmycUSP7 for co-IP assays. The mammalian ICP0 expression construct pCI-110 ICP0 was obtained from Roger Everett.
(§2) The ICP0, GMPS and UHRF1 WT and mutant peptides were cloned into pGEX-2TK and expressed in E. coli BL21(DE3). GST-ICP0 594–775 was obtained from Roger Everett. The GST-ICP0 or GST-GMPS or GST-UHRF1 or GST-ICP0 594–775 cell pellets from 500 ml of LB broth were re-suspended with PBS and lysed using sonication. The cleared lysates were applied to 500 μl of equilibrated glutathione-sepharose beads and incubated with rocking for 60 min at 4°C. Unbound proteins were removed by washing with PBS. Bound proteins were eluted with 50 mM Tris pH 8.0 and 100 mM NaCL containing 30 mM reduced glutathione. Equal amounts (250 μg) of the various USP7 proteins were incubated with 250 μg of the GST-ICP0 or GST-GMPS or GST-UHRF1 or GST-ICP0 594–775 peptides in 50 mM Tris pH 8.0, 100 mM NaCl, 5 mM DTT, 5% glycerol, 0.1 mM Benzamidine and 0.05 mM PMSF, applied to equilibrated glutathione-sepharose beads and incubated overnight with rocking at 4°C. After extensive washing, bound proteins were eluted with 50 mM Tris pH 8.0 and 100 mM NaCl containing 30 mM reduced glutathione.

FL-USP7 = assay: GST pull-down, USP7-FL; type: binding, human; details: GST fusions 250 μg + USP7 250 μg, 50 mM Tris pH 8.0, 100 mM NaCl, 5 mM DTT, 5% glycerol, overnight 4°C; Coomassie stained gel; Fig 1A/1C; symbols not defined
Protocol: The USP7 binding region is found within ICP0 residues 594–633 and mutagenesis studies have shown that K620 is essential for the interaction. In order to facilitate crystallization and structure determination, we set out to identify a shorter peptide that is capable of binding to USP7. To this end, a series of overlapping GST-ICP0 fusions (591–605, 595–609, 599–613, 603–617, 607–621, 611–625, 615–629, 619–633) were prepared (see Fig 1A for sequence details) and used in GST pull-down assays. […] Overall, our GST pull-down assays identified ICP0 residues between 619 and 629 as important mediators of USP7 binding in agreement with a previous study.
Next we determined which region of USP7-CTD interacted with the ICP0 615–629 peptide. FL-USP7, USP7-CTD as well as Ubl12, Ubl123, Ubl345 and Ubl45 (Fig 1B) were used as prey in GST pull-down assays using GST-ICP0 615–629. FL-USP7 and USP7-CTD were used as positive controls while GST alone and USP7-NTD were used as negative controls.
as §2

USP7-CTD mutant D762A = assay: GST pull-down, USP7-CTD D762A; type: binding, human
Protocol: as §1, §2

[1] = system: USP7-CTD mutant D762A/D764A; assay: GST pull-down, USP7-CTD D762A/D764A; type: binding, human
Protocol: as §1, §2

USP7-CTD mutant D764A = assay: GST pull-down, USP7-CTD D764A; type: binding, human
Protocol: as §1
The ICP0, GMPS and UHRF1 WT and mutant peptides were cloned into pGEX-2TK and expressed in E. coli BL21(DE3). GST-ICP0 594–775 was obtained from Roger Everett. The GST-ICP0 or GST-GMPS or GST-UHRF1 or GST-ICP0 594–775 cell pellets from 500 ml of LB broth were re-suspended with PBS and lysed using sonication. The cleared lysates were applied to 500 μl of equilibrated glutathione-sepharose beads and incubated with rocking for 60 min at 4°C. Unbound proteins were removed by washing with PBS. Bound proteins were eluted with 50 mM Tris pH 8.0 and 100 mM NaCL containing 30 mM reduced glutathione. […]

[2] = system: myc-tagged D762R/D764R (MRGR) USP7; assay: Co-immunoprecipitation with myc-tagged D762R/D764R (MRGR) USP7 from 293T cells; type: cell-based, human; details: anti-myc IP
Protocol: (§3) 293T cells were grown in Dulbecco’s modified Eagle’s medium (DMEM) (Gibco) with 10% fetal calf serum. 293T cells at 70% confluence in a 10-cm-diameter dish were transfected with 10 μg pCANmycUSP7 expressing WT USP7 or D762R/D764R (MRGR) USP7 or with pcDNA3.1 (negative control), in each case using 20 μl PolyJet (SignaGen Laboratories) transfection reagent. Cells were transferred to a 15-cm-diameter dish 24 h post-transfection and harvested 48 h post-transfection. For experiments on USP7-ICP0 interactions, 293T cells were co-transfected with 1 μg pCANmycUSP7 expressing WT or D762R/D764R (MRGR) USP7 and either 1 μg pCI-110 ICP0 or 1 μg pcDNA3.1. For controls lacking USP7, 1 μg pCI-110 ICP0 was co-transfected with 1 μg pcDNA3.1. In each case 4 μl PolyJet (SignaGen Laboratories) transfection reagent was used.
Protein samples were subjected to SDS-PAGE and transferred to nitrocellulose. Membranes were blocked in 5% skim milk in Tris-buffered saline with 1% Tween (TBS-T) and then incubated with antibodies against ICP0 (H1A027 from Virusys Corporation; 1:5000 dilution), myc (sc-40 from Santa Cruz Biotechnology; 1:5000 dilution), NP95/UHRF1 (A301-470A from Bethyl Laboratories; 1:1000 dilution), GMPS (rabbit serum raised against full-length GMPS [17]; 1:5000 dilution) and actin (MA5-15739 from Pierce; 1:20,000 dilution). After washing, blots were probed with goat anti-mouse or goat anti-rabbit peroxidase (Santa Cruz Biotechnology; 1:5000 dilution) and developed using chemiluminescence reagents (Santa Cruz biotechnology).
293T cells transfected as described above were washed in phosphate-buffered saline (PBS) and lysed on ice for 45 min in a 4x volume of RIPA buffer (50 mM Tris-HCl [pH 8], 150 mM NaCl, 0.1% sodium deoxycholate, 0.5% NP-40) with complete protease inhibitors (Sigma P8340), followed by centrifugation. 1 mg of each clarified lysate was incubated with 1 μg of anti-myc antibody for 1h, followed by incubation with 30 μl of A/G PLUS agarose resin (Santa Cruz Biotechnology) for 2 h at 4°C with end-over-end rotation. The resin was harvested by centrifugation, washed in RIPA buffer, and then boiled in SDS loading buffer. Immunoprecipitated proteins were separated by SDS-PAGE and analyzed by Western blotting, as described above.

myc-tagged WT USP7 = assay: Co-immunoprecipitation with myc-tagged WT USP7 from 293T cells; type: cell-based, human; details: anti-myc IP, endogenous protein, Western blot, Fig 5B
Protocol: as §3
Protein samples were subjected to SDS-PAGE and transferred to nitrocellulose. […]
293T cells transfected as described above were washed in phosphate-buffered saline (PBS) and lysed on ice for 45 min in a 4x volume of RIPA buffer (50 mM Tris-HCl [pH 8], 150 mM NaCl, 0.1% sodium deoxycholate, 0.5% NP-40) with complete protease inhibitors (Sigma P8340), followed by centrifugation. […] Immunoprecipitated proteins were separated by SDS-PAGE and analyzed by Western blotting, as described above.

USP7 Ubl123 = molecular target: T2, USP7 Ubl123 (Homo sapiens, UniProt Q93009); assay: GST pull-down, Ubl123; type: binding; details: mutations within ICP0 615–629, Fig 3D
T2 construct: Ubl123 (535–889); His tag (inferred from nickel-NTA purification; vector p15TV-L); made in house; host or cells: E. coli BL21(DE3)mgk
Protocol: as §1, §2

T2 sequence (Q93009 535-889): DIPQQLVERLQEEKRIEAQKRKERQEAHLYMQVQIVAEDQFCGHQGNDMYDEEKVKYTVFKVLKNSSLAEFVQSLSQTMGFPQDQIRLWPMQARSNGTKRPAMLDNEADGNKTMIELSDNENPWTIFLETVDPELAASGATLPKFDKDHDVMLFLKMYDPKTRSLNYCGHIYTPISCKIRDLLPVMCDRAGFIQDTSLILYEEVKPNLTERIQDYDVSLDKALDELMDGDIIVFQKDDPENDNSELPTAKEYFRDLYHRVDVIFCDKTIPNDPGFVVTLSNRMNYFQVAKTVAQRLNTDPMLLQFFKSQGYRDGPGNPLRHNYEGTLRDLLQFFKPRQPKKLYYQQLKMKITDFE
T1 sequence (Q93009 535-1102): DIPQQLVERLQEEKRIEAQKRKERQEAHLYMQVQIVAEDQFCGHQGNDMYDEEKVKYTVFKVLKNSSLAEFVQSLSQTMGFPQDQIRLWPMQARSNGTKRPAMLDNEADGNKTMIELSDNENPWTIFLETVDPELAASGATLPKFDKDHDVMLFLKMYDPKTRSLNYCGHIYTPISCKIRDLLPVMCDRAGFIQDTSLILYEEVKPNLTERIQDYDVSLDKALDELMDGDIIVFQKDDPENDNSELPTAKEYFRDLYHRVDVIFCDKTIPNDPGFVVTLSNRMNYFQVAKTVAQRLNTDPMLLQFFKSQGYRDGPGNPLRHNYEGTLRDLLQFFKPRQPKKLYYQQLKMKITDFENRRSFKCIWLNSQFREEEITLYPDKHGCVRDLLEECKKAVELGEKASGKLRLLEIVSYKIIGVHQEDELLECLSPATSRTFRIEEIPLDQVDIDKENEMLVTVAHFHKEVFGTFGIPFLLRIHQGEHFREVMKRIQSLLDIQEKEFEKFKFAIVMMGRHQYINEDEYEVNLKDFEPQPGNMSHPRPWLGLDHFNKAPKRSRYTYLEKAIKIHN

## AASGPRGPRKCARKT [ICP0 611–625, GST-ICP0 fusion of ICP0 residues 611–625]
USP7-CTD; GST fusions 250 μg + USP7-CTD 250 μg, 50 mM Tris pH 8.0, 100 mM NaCl, 5 mM DTT, 5% glycerol, overnight 4°C, Coomassie stained gel, Fig 1A/1D, symbols not defined
  Interaction with USP7-CTD (overlapping GST-ICP0 peptides): interacted with FL-USP7 and USP7-CTD but not to the same extent
FL-USP7
  Interaction with USP7-FL (overlapping GST-ICP0 peptides): interacted with FL-USP7 and USP7-CTD but not to the same extent

## DRTPRKRISKTLN [GST-GMPS peptide, GST fusion of GMPS residues 316–328]
USP7-CTD; GST pull-down, GST-ICP0 594–775, GST-GMPS and GST-UHRF1 peptides and mutants, Fig 3H, 4C-F
  Binding to WT USP7-CTD: interacted with USP7-CTD
USP7-CTD mutant D762A
  Binding to USP7-CTD mutant D762A: disrupted binding
[1]
  Binding to USP7-CTD mutant D762A/D764A: disrupted binding
USP7-CTD mutant D764A
  Binding to USP7-CTD mutant D764A: disrupted binding

## GMPS: endogenous GMP synthase in 293T cells
[2]; D762R/D764R mutant, endogenous protein, multiple experiments, Fig 5B
  binding relative to recovery with WT USP7: 35% (± 16%)
[2]; Western blot, Fig 5
  recovery with D762R/D764R USP7 (co-IP), in words: significantly decreased
myc-tagged WT USP7
  recovery with WT USP7 (co-IP): efficiently recovered

## K620A (PRGPRACARKTRHAE; also: GST fusion partner not in chain)
USP7 Ubl123
  Binding of mutant GST-ICP0 peptides to Ubl123: lacked detectable binding

## K620A/K624A (PRGPRACARATRHAE; also: GST fusion partner not in chain)
USP7 Ubl123
  Binding of mutant GST-ICP0 peptides to Ubl123: lacked detectable binding

## K624A (PRGPRKCARATRHAE; also: GST fusion partner not in chain)
USP7 Ubl123
  Binding of mutant GST-ICP0 peptides to Ubl123: lacked detectable binding
